# Source: ChEMBL document CHEMBL4304757, “Synthetic heterocyclic candidates as promising α-glucosidase inhibitors: An overview” (Eur J Med Chem, 2019)
# Target: T1, Alpha glucosidase (Homo sapiens, UniProt O43451+P10253+P14410+Q2M2H8)
# Assay: Inhibition of alpha-glucosidase (unknown origin) using p-nitrophenyl-alpha-d-glucopyranoside as substrate preincubated for 5 mins followed by substrate addition measured after 30 mins
# Format: protein assay
# Details: not given
row,Compound,IC50 [µM]
1,O=C(N/N=C1\S/C(=C\c2ccc(F)cc2)C(=O)N1c1ccc(Cl)cc1)c1cc2ccccc2oc1=O,0.09 to 1.6
2,Cc1cccc(N2C(=O)/C(=C/c3ccc(F)cc3)S/C2=N\NC(=O)c2cc3ccccc3oc2=O)c1C,> 100
3,COc1ccccc1N1C(=O)/C(=C/c2ccc(F)cc2)S/C1=N\NC(=O)c1cc2ccccc2oc1=O,0.09
4,Cc1cccc(N2C(=O)/C(=C/c3ccc(F)cc3)S/C2=N\NC(=O)c2cc3ccccc3oc2=O)c1,0.09 to 1.6
5,COc1cccc(N2C(=O)/C(=C/c3ccc(F)cc3)S/C2=N\NC(=O)c2cc3ccccc3oc2=O)c1,0.09 to 1.6
6,Cc1ccc(N2C(=O)/C(=C/c3ccc(F)cc3)S/C2=N\NC(=O)c2cc3ccccc3oc2=O)c(C)c1,0.09 to 1.6
7,Cc1cc(C)cc(N2C(=O)/C(=C/c3ccc(F)cc3)S/C2=N\NC(=O)c2cc3ccccc3oc2=O)c1,0.09 to 1.6
8,Cc1ccc(N2C(=O)/C(=C/c3ccc(F)cc3)S/C2=N\NC(=O)c2cc3ccccc3oc2=O)cc1,0.09 to 1.6
9,O=C(N/N=C1\S/C(=C\c2ccc(F)cc2)C(=O)N1c1ccccc1Cl)c1cc2ccccc2oc1=O,0.09 to 1.6
10,COc1ccc(N2C(=O)/C(=C/c3ccc(F)cc3)S/C2=N\NC(=O)c2cc3ccccc3oc2=O)cc1,0.09 to 1.6
11,Cc1ccccc1N1C(=O)/C(=C/c2ccc(F)cc2)S/C1=N\NC(=O)c1cc2ccccc2oc1=O,0.09 to 1.6
12,O=C(N/N=C1\S/C(=C\c2ccc(F)cc2)C(=O)N1c1cccc(Cl)c1)c1cc2ccccc2oc1=O,> 100

# Target: T1, Alpha glucosidase
# Assay: Inhibition of alpha-glucosidase (unknown origin) using p-nitro phenyl glucopyranoside as substrate preincubated for 10 mins followed by substrate addition measured after 30 mins
# Format: protein assay
# Details: not given
row,Compound,IC50 [µM]
1,O=C(N/N=C/c1ccccc1F)c1nc(-c2cc3ccccc3oc2=O)cs1,6.2 to 81
2,COc1ccc(/C=N/NC(=O)c2nc(-c3cc4ccccc4oc3=O)cs2)cc1,6.2 to 81
3,O=C(N/N=C/c1ccc(C(F)(F)F)cc1)c1nc(-c2cc3ccccc3oc2=O)cs1,6.2 to 81
4,O=C(N/N=C/c1ccc(O)cc1)c1nc(-c2cc3ccccc3oc2=O)cs1,6.2 to 81
5,COc1ccc(/C=N/NC(=O)c2nc(-c3cc4ccccc4oc3=O)cs2)c(O)c1,6.2 to 81
6,O=C(N/N=C/c1cccc(Br)c1)c1nc(-c2cc3ccccc3oc2=O)cs1,6.2 to 81
7,CC(C)(C)c1cc(/C=N/NC(=O)c2nc(-c3cc4ccccc4oc3=O)cs2)c(O)c(C(C)(C)C)c1,6.2 to 81
8,COc1ccccc1/C=N/NC(=O)c1nc(-c2cc3ccccc3oc2=O)cs1,6.2 to 81
9,O=C(N/N=C/c1ccc(O)c(O)c1)c1nc(-c2cc3ccccc3oc2=O)cs1,6.2 to 81
10,O=C(N/N=C/c1cc(Cl)ccc1O)c1nc(-c2cc3ccccc3oc2=O)cs1,6.2 to 81
11,O=C(N/N=C/c1cccc(Cl)c1)c1nc(-c2cc3ccccc3oc2=O)cs1,6.2 to 81
12,O=C(N/N=C/c1ccccc1O)c1nc(-c2cc3ccccc3oc2=O)cs1,6.2 to 81
13,O=C(N/N=C/c1cc(O)ccc1O)c1nc(-c2cc3ccccc3oc2=O)cs1,6.2 to 81
14,O=C(N/N=C/c1ccc(Cl)cc1)c1nc(-c2cc3ccccc3oc2=O)cs1,6.2 to 81
15,O=C(N/N=C/c1cccc(F)c1)c1nc(-c2cc3ccccc3oc2=O)cs1,6.2 to 81
16,O=C(N/N=C/c1ccc(O)c(F)c1)c1nc(-c2cc3ccccc3oc2=O)cs1,6.2 to 81

# Tested on: MDA-MB-231
# Assay: Cytotoxicity against human MDA-MB-231 cells assessed as reduction in cell viability at 100 uM relative to control
# Format: functional, cell-based
# Details: not given
row,Compound,Activity
1,O=C(N/N=C1\S/C(=C\c2ccc(F)cc2)C(=O)N1c1ccc(Cl)cc1)c1cc2ccccc2oc1=O,>=76%
2,Cc1cccc(N2C(=O)/C(=C/c3ccc(F)cc3)S/C2=N\NC(=O)c2cc3ccccc3oc2=O)c1C,>=76%
3,COc1ccccc1N1C(=O)/C(=C/c2ccc(F)cc2)S/C1=N\NC(=O)c1cc2ccccc2oc1=O,72.8%
4,Cc1cccc(N2C(=O)/C(=C/c3ccc(F)cc3)S/C2=N\NC(=O)c2cc3ccccc3oc2=O)c1,>=76%
5,COc1cccc(N2C(=O)/C(=C/c3ccc(F)cc3)S/C2=N\NC(=O)c2cc3ccccc3oc2=O)c1,>=76%
6,Cc1ccc(N2C(=O)/C(=C/c3ccc(F)cc3)S/C2=N\NC(=O)c2cc3ccccc3oc2=O)c(C)c1,>=76%
7,CC[C@]1(O)C[C@H]2CN(CCc3c([nH]c4ccccc34)[C@@](C(=O)OC)(c3cc4c(cc3OC)N(C=O)[C@H]3[C@@](O)(C(=O)OC)[C@H](OC(C)=O)[C@]5(CC)C=CCN6CC[C@]43[C@@H]65)C2)C1 [VINCRISTINE],74.5%
8,Cc1ccc(N2C(=O)/C(=C/c3ccc(F)cc3)S/C2=N\NC(=O)c2cc3ccccc3oc2=O)cc1,>=76%
9,COc1ccc(N2C(=O)/C(=C/c3ccc(F)cc3)S/C2=N\NC(=O)c2cc3ccccc3oc2=O)cc1,>=76%
10,Cc1ccccc1N1C(=O)/C(=C/c2ccc(F)cc2)S/C1=N\NC(=O)c1cc2ccccc2oc1=O,>=76%
11,O=C(N/N=C1\S/C(=C\c2ccc(F)cc2)C(=O)N1c1cccc(Cl)c1)c1cc2ccccc2oc1=O,>=76%

# Same assay, conditions: Homo sapiens, MDA-MB-231
row,Compound,IC50 [µM]
1,Cc1cc(C)cc(N2C(=O)/C(=C/c3ccc(F)cc3)S/C2=N\NC(=O)c2cc3ccccc3oc2=O)c1,0.09 to 1.6
2,O=C(N/N=C1\S/C(=C\c2ccc(F)cc2)C(=O)N1c1ccccc1Cl)c1cc2ccccc2oc1=O,0.09 to 1.6

# Target: T1, Alpha glucosidase
# Assay: Inhibition of alpha-glucosidase (unknown origin) using p-nitrophenyl-alpha-d-glucopyranoside as substrate preincubated for 10 mins followed by substrate addition measured after 20 mins
# Format: protein assay
# Details: not given
row,Compound,IC50 [µM]
1,Nc1c(C(c2cccc(Cl)c2)c2c(N)c3ccccc3oc2=O)c(=O)oc2ccccc12,20 to 180
2,Nc1c(C(c2cccc(Br)c2)c2c(N)c3ccccc3oc2=O)c(=O)oc2ccccc12,20 to 180
3,COc1cc(C(c2c(N)c3ccccc3oc2=O)c2c(N)c3ccccc3oc2=O)cc(Cl)c1O,20 to 180
4,Nc1c(C(c2ccccc2F)c2c(N)c3ccccc3oc2=O)c(=O)oc2ccccc12,20 to 180
5,COc1cccc(C(c2c(N)c3ccccc3oc2=O)c2c(N)c3ccccc3oc2=O)c1,20 to 180
6,Nc1c(C(c2cccc(F)c2)c2c(N)c3ccccc3oc2=O)c(=O)oc2ccccc12,20 to 180
7,COc1cc(C(c2c(N)c3ccccc3oc2=O)c2c(N)c3ccccc3oc2=O)cc(Br)c1O,20 to 180
8,Nc1c(C(c2ccccc2)c2c(N)c3ccccc3oc2=O)c(=O)oc2ccccc12,20 to 180
9,Cc1cccc(C(c2c(N)c3ccccc3oc2=O)c2c(N)c3ccccc3oc2=O)c1,20 to 180
10,Nc1c(C(c2ccc(O)cc2)c2c(N)c3ccccc3oc2=O)c(=O)oc2ccccc12,20 to 180
11,Nc1c(C(c2ccc([N+](=O)[O-])cc2)c2c(N)c3ccccc3oc2=O)c(=O)oc2ccccc12,20 to 180
12,Nc1c(C(c2ccccc2Cl)c2c(N)c3ccccc3oc2=O)c(=O)oc2ccccc12,20 to 180
